Results reported in patent US20160158240A1, “Compositions Containing Defined Caffeine and Theobromine Levels with Enhanced Cognitive Properties” (The Hershey Company, priority 2014, published 2016).

Assays:
brain blood flow = conditions: study using 6 participants; cited from earlier work
[1] = test system: subjects with a caffeine habit; experiment: fMRI connectivity and brain blood flow analysis after test beverage; format: in vivo, human; conditions: subject that routinely ingests caffeine; brain regions consistent with caffeine cravings; FIG. 1 and FIG. 3
From the text: Measurement or detection of changes in the brain can be done using functional MRI (fMRI) and functional brain network analyses as known in the art. The following is an exemplary study using known techniques based upon fMRI scanning of human brains.
These examples represent an intervention study (number of subjects=24) with a randomized controlled, double-blind, placebo-controlled crossover design. The study is designed to ensure completion of all possibilities in the order of delivering the test samples, i.e. each subject is administered each of the possible test beverages in different order. […] For initial baseline testing, subjects undergo 16 hours of caffeine and chocolate withdrawal for a baseline testing and then participate in four separate brain scanning visits over 5-10 weeks. Study participants are ideally healthy adults 18-55 who consume moderate (200-500 mg) amounts of caffeine daily. […] As determined from a medical screening session, any subjects with active neurological dysfunction (such as a major Axis I psychopathology, Alzheimer's disease, Parkinson's disease, prior history of stroke, epilepsy, or serious CNS trauma, ADHD, migraines, hypertension, diabetes, peripheral vascular disease, or taking vasoactive medications, such as antihypertensive medications) are excluded from the study. […]

Cn1c(=O)c2c(ncn2C)n(C)c1=O [Caffeine, caffeine]
brain blood flow difference between caffeine and theobromine (brain blood flow): 5.03 ml/100 gm tissue/min | change in blood flow/connectivity by fMRI [1]: reduction in blood flow/connectivity
